Experimental data: patent US7837670B2, “Methods and devices for delivering therapeutic agents into the prostate gland” (Boston Scientific Scimed, Inc., priority 2005, dated 2010)

Columns and labels:
[1] = system: BPH; details: only after 6 months of oral treatment; cited from earlier work
[2] = Autoradiography of the prostate after transurethral catheter injection of tritium labeled agent
[3] = Parallel autoradiography of liver and urogenital organs to test for regurgitation or escape into the blood stream
[4] = 6 hours after transurethral injection of 150 uCi 3H-flutamide
[5] = 24 hours after transurethral injection of 150 uCi 3H-flutamide
[6] = 48 hours after transurethral injection of 150 uCi 3H-flutamide

Compound	alleviation of BPH complaints, share of cases [1]	diffuse (non-nuclear, including stroma) activity in prostate ([2]; 1 hour after transurethral injection of 150 uCi 3H-flutamide)	free (extra-nuclear) activity in prostate [2, 4]	glandular nuclear activity in prostate [2, 4]	glandular nuclear activity in prostate ([2]; 12 hours after transurethral injection of 150 uCi 3H-flutamide)	nuclear binding in prostate [2, 5]	unbound activity in prostate [2, 5]	extra-nuclear labeling in prostate [2, 6]	glandular nuclear activity in prostate [2, 6]	autoradiographic labeling of seminal vesicle, seminal duct and testicular samples ([3]; all time points (1, 6, 12, 24, 48 hours))	autoradiographic grains in the epididymis (regurgitation of the label) ([3]; epididymis, 6 hours after transurethral injection of 150 uCi)	autoradiographic grains in the liver (escape into systemic circulation) ([3]; liver, 48 hours after transurethral injection of 150 uCi)
CC(C)(C)NC(=O)[C@H]1CC[C@H]2[C@@H]3CC[C@H]4NC(=O)C=C[C@]4(C)[C@H]3CC[C@]12C [finasteride]	about half of the cases											
3H-flutamide [tritium labeled flutamide]		Strong, diffuse activity scattered over the whole prostate	periphery of the gland. Practically no free (extra-nuclear)	Strong, selective glandular (but not stromal or muscular)	Strong, selective glandular (but not stromal or muscular)	Strong nuclear binding	minimal unbound activity scattered	covers the whole prostate, minimal scattered extra-nuclear	Still strong, although somewhat less activity over the	remained all negative	No grains are seen in the epididymis	No grains are seen in the liver
